ChEMBL document CHEMBL1933060, “Discovery of novel 5-alkynyl-4-anilinopyrimidines as potent, orally active dual inhibitors of EGFR and Her-2 tyrosine kinases” (Bioorg Med Chem Lett, 2012)
The source made the active and inactive calls. The calls are words filed in the database; no cut-off is given here.

Legend:
NCI-N87 [1] = test: Antiproliferative activity against human NCI-N87 cells after 3 days by methylene blue staining; assay type: functional, cell-based; conditions: NCI-N87, 72 h
[2] = target: Receptor tyrosine-protein kinase erbB-2 (Homo sapiens, UniProt P04626); test: Inhibition of Her-2 by time-resolved fluorescence assay
BT-474 = test: Antiproliferative activity against human BT474 cells after 3 days by methylene blue staining; assay type: functional, cell-based; conditions: BT-474, 72 h
NCI-N87 [3] = test: Antitumor activity against human NCI-N87 cells xenografted in athymic mouse assessed as tumor growth inhibition at 20 mg/kg, po QD for 14 days measured after 19 days; assay type: functional, organism-based; design: dose 20 mg/kg
[4] = target: Epidermal growth factor receptor (Homo sapiens, UniProt P00533); test: Inhibition of EGFR by time-resolved fluorescence assay
NCI-N87 [5] = test: Antitumor activity against human NCI-N87 cells xenografted in athymic mouse assessed as tumor volume at 20 mg/kg, po QD for 14 days measured after 19 days relative to control; assay type: functional
[6] = target: Platelet-derived growth factor receptor beta (Homo sapiens, UniProt P09619); test: Inhibition of PDGFRbeta
[7] = Metabolic stability of the compound in human liver microsomes assessed as compound remaining after 30 mins; assay type: ADME, Microsome; conditions: read-out: Stability
[8] = Metabolic stability of the compound in rat liver microsomes assessed as compound remaining after 30 mins; assay type: ADME, Microsome; conditions: read-out: Stability
[9] = target: Tyrosine-protein kinase Lck (Homo sapiens, UniProt P06239); test: Inhibition of Lck
NCI-N87 [10] = test: Antitumor activity against human NCI-N87 cells xenografted in athymic mouse assessed as tumor volume at 80 mg/kg, po QD for 14 days measured after 19 days relative to control; assay type: functional
Aurora kinase A = target: T1, Aurora kinase A (Homo sapiens, UniProt O14965); test: Inhibition of Aurora A
T1 sequence (O14965 whole entry): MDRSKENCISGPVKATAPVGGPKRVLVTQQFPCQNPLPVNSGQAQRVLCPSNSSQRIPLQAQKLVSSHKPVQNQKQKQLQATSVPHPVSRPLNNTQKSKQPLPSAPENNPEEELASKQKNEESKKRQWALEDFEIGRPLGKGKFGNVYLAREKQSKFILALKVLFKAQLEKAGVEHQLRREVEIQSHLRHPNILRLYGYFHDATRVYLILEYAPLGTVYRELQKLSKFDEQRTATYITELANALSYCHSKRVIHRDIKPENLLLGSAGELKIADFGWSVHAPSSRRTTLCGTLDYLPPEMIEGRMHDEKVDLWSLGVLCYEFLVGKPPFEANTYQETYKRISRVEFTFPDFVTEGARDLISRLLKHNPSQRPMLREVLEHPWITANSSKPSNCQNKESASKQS

NCI-N87 [11] = test: Antitumor activity against human NCI-N87 cells xenografted in athymic mouse assessed as tumor growth inhibition at 80 mg/kg, po QD for 14 days measured after 19 days; assay type: functional, organism-based; design: dose 80 mg/kg
Insulin receptor = Insulin receptor (Homo sapiens, UniProt P06213); test: Inhibition of INSR
[12] = Aqueous solubility of the compound at pH 7.4; assay type: physicochemical
[13] = Total clearance in iv dosed rat; assay type: ADME, organism-based; conditions: in vivo
[14] = AUC in po dosed rat; assay type: ADME, organism-based; conditions: plasma
[15] = target: Vascular endothelial growth factor receptor 2 (Homo sapiens, UniProt P35968); test: Inhibition of VEGFR2
[16] = Oral bioavailability in rat; assay type: ADME, organism-based; conditions: in vivo

Chain of Receptor tyrosine-protein kinase erbB-2 (P04626 whole entry): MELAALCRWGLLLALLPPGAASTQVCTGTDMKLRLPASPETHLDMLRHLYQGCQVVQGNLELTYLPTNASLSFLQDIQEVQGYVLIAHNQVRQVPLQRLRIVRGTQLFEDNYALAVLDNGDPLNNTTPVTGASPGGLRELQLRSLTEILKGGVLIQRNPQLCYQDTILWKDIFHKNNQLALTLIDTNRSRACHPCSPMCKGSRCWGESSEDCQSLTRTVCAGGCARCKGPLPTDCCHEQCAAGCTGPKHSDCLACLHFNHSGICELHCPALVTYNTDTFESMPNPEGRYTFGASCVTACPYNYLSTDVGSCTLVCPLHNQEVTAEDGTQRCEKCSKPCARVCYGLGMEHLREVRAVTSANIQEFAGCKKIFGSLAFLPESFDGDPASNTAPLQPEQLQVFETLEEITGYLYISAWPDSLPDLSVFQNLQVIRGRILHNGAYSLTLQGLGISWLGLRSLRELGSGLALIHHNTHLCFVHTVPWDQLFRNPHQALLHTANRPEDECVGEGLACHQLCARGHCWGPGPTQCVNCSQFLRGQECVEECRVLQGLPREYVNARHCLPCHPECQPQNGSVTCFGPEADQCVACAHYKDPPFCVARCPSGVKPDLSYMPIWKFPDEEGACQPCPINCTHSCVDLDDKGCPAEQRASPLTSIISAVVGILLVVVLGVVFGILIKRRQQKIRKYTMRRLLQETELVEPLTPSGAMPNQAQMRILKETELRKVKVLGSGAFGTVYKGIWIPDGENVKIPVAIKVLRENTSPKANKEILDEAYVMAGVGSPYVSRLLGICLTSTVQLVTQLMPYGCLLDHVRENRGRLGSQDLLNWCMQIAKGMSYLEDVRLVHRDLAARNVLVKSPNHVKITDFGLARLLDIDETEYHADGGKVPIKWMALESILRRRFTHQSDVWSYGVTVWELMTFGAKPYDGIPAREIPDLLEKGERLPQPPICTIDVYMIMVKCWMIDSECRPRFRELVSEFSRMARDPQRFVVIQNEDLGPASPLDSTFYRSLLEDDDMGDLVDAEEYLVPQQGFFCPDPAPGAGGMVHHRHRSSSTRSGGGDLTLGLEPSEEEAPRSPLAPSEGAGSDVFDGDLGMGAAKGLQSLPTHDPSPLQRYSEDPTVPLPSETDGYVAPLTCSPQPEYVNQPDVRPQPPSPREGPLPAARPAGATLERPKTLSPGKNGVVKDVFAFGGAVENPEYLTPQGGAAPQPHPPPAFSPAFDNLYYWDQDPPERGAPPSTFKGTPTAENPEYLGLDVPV
Chain of Epidermal growth factor receptor (P00533 whole entry): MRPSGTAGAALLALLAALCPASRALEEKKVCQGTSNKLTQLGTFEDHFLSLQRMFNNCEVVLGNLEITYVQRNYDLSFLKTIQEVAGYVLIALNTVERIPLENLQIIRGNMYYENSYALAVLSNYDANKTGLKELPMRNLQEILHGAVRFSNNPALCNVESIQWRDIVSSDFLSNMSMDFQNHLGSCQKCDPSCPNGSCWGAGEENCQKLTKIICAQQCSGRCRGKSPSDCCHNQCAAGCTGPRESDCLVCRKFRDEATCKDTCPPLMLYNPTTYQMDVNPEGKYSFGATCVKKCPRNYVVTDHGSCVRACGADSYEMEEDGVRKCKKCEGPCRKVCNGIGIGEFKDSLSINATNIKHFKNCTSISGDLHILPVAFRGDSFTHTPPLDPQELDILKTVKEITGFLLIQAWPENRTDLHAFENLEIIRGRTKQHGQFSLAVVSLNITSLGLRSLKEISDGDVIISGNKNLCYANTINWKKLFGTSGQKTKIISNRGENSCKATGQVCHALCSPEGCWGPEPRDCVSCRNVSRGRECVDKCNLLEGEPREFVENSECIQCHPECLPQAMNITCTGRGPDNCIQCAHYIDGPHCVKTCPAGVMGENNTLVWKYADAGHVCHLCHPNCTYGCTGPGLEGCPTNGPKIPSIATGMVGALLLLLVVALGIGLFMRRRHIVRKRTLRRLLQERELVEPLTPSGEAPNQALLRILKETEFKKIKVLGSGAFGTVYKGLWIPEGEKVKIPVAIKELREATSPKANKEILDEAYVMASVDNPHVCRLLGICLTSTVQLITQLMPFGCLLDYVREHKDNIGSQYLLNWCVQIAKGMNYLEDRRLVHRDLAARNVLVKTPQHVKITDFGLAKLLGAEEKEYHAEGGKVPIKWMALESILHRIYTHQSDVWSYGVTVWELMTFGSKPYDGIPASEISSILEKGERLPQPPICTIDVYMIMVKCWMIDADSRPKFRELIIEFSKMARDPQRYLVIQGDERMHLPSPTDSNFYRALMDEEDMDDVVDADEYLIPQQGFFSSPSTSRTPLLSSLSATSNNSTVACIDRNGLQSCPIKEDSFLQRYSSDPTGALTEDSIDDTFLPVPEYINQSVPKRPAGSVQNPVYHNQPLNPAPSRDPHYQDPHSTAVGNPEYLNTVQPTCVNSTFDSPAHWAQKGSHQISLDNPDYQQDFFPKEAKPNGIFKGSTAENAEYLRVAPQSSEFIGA
Chain of Insulin receptor (P06213 28-758 limits assumed): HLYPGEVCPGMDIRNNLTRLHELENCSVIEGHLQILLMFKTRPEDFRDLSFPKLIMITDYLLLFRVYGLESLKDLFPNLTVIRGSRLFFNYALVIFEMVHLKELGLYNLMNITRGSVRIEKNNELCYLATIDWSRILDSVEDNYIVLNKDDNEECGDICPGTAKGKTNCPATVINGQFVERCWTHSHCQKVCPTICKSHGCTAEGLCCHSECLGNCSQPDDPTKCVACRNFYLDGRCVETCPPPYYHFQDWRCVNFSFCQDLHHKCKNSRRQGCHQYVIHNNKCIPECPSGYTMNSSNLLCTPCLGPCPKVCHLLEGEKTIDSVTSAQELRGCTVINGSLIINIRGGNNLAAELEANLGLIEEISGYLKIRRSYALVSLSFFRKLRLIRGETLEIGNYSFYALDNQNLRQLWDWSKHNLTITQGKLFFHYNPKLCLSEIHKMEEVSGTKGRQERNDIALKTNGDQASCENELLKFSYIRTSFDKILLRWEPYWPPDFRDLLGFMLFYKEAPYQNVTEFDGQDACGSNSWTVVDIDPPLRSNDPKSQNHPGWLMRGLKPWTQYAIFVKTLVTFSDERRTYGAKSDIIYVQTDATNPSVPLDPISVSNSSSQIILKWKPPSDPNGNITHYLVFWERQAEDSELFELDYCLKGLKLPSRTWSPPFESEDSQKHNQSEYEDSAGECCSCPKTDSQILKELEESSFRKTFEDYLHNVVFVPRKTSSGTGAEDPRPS
Chain of Insulin receptor (P06213 763-1382 limits assumed): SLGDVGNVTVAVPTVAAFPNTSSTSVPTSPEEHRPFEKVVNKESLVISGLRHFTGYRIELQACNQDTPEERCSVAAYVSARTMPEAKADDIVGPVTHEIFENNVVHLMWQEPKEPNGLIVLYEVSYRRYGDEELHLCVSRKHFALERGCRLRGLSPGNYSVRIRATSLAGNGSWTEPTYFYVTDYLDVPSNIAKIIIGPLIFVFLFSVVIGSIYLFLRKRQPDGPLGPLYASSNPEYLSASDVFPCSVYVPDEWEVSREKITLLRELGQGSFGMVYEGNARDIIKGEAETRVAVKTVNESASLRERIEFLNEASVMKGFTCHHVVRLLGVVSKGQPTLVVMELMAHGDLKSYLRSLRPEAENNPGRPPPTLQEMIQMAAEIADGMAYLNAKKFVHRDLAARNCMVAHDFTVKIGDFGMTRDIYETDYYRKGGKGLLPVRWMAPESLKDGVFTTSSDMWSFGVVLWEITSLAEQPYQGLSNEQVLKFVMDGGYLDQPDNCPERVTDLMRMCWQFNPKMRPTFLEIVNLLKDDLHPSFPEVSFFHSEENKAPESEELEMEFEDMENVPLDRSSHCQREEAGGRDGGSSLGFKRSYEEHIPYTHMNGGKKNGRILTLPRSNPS
Chain of Tyrosine-protein kinase Lck (P06239 whole entry): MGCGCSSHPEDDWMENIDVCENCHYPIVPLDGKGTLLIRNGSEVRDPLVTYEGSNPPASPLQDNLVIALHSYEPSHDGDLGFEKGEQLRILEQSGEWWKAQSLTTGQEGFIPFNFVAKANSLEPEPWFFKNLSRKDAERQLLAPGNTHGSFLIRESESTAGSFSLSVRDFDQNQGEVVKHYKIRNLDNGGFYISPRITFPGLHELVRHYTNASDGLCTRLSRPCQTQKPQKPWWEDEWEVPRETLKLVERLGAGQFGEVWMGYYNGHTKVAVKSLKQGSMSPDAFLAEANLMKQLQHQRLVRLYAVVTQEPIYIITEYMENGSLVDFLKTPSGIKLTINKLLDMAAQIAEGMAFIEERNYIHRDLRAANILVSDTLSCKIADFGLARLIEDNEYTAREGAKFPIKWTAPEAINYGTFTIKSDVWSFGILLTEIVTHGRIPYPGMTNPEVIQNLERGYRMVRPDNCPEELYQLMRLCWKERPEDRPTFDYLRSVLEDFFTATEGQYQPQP

| Compound | IC50 (NCI-N87 [1]) | IC50 [2] | IC50 (BT-474) | IC50 [4] | also measured |
| --- | --- | --- | --- | --- | --- |
| Cc1ncnc(Nc2ccc(OCc3cccc(F)c3)c(Cl)c2)c1/C=C/c1ccc(CNCCS(C)(=O)=O)cc1 | 780 nM | 120 nM | 640 nM |  |  |
| CS(=O)(=O)CCNCc1ccc(-c2ccc3ncnc(Nc4ccc(OCc5cccc(F)c5)c(Cl)c4)c3c2)o1 [LAPATINIB] | 90 nM |  | 100 nM |  |  |
| CS(=O)(=O)CCNCc1ccc(-c2ccc3ncnc(Nc4ccc(OCc5cccc(F)c5)c(Cl)c4)c3c2)o1 |  |  |  |  | growth inhibition (GI) (NCI-N87 [3]): Active |
| Cc1ncnc(Nc2ccc(OCc3cccc(F)c3)c(Cl)c2)c1C#Cc1ccc(CN2CCCC2)o1 | 1360 nM | 140 nM | 810 nM | 79 nM |  |
| Cc1ncnc(Nc2ccc(OCc3cccc(F)c3)c(Cl)c2)c1C#Cc1ccc(CN2CCCC2)s1 | 690 nM | 180 nM | 410 nM | 30 nM |  |
| Cc1ncnc(Nc2ccc(OCc3cccc(F)c3)c(Cl)c2)c1/C=C/c1ccc(CNC2CC2)cc1 |  | 86 nM |  | 98 nM |  |
| Cc1ncnc(Nc2ccc(OCc3cccc(F)c3)c(Cl)c2)c1C#Cc1ccc(CN2CCCC2)c(F)c1 | 60 nM | 62 nM | 50 nM | 190 nM | T/C (NCI-N87 [5]): 0.56; IC50 [6]: > 100000 nM; remaining at 0.5 h [7]: 24%; remaining at 0.5 h [8]: 63%; IC50 [9]: > 100000 nM; T/C (NCI-N87 [10]): 0.54; growth inhibition (GI) (NCI-N87 [3]): Active; IC50 (Aurora kinase A): > 100000 nM; growth inhibition (GI) (NCI-N87 [11]): Active; IC50 (Insulin receptor): > 100000 nM; solubility [12]: > 50 µM; clearance [13]: 18 mL/min/kg; AUC [14]: 361 ng·h/mL; IC50 [15]: > 100000 nM; bioavailability [16]: 35% |
| Cc1ncnc(Nc2ccc(OCc3cccc(F)c3)c(Cl)c2)c1C#Cc1ncc(CN2CCCC2)s1 |  | 110 nM |  | 74 nM |  |
| Cc1ncnc(Nc2ccc(OCc3cccc(F)c3)c(Cl)c2)c1C#Cc1ccc(CN2CCCC2)cc1 |  | 41 nM |  | 9 nM |  |
| Cc1ncnc(Nc2ccc(OCc3cccc(F)c3)c(Cl)c2)c1C#Cc1cccc(CN(C)C)c1 |  | 73 nM |  | 55 nM |  |
| Cc1ncnc(Nc2ccc(OCc3cccc(F)c3)c(Cl)c2)c1C#Cc1ccc(CN(C)C)cc1 |  | 41 nM |  | 7 nM |  |
| Cc1ncnc(Nc2ccc(OCc3cccc(F)c3)c(Cl)c2)c1C#Cc1ccccc1 |  | 750 nM |  | 650 nM |  |
| Cc1ncnc(Nc2ccc(OCc3cccc(F)c3)c(Cl)c2)c1C#Cc1ccc(CNC(C)C)cc1 | 240 nM | 18 nM | 170 nM | 3 nM |  |
| Cc1ncnc(Nc2ccc(OCc3cccc(F)c3)c(Cl)c2)c1C#Cc1ccc(CNCCS(C)(=O)=O)cc1 |  | 220 nM |  | 22 nM |  |
| CS(=O)(=O)CCNCc1ccc(-c2ccc3ncnc(Nc4ccc(OCc5cccc(F)c5)c(Cl)c4)c3c2)o1.Cc1ccc(S(=O)(=O)O)cc1.Cc1ccc(S(=O)(=O)O)cc1.O [LAPATINIB DITOSYLATE] |  |  |  |  | T/C (NCI-N87 [5]): 0.57; T/C (NCI-N87 [10]): 0.37 |
| Cc1ncnc(Nc2ccc(OCc3cccc(F)c3)c(Cl)c2)c1C#CCOc1ccc(CNC(C)C)cc1 |  | 130 nM |  | 86 nM |  |
| Cc1ncnc(Nc2ccc(OCc3cccc(F)c3)c(Cl)c2)c1/C=C/c1ccc(CNC(C)C)cc1 |  | 30 nM |  | 24 nM |  |
